# Reference: ChEMBL document CHEMBL1155106, “Progesterone receptor antagonists with a 3-phenylquinazoline-2,4-dione/2-phenylisoquinoline-1,3-dione skeleton” (Bioorg Med Chem, 2008)
# Calls of active or inactive are those of the source. No cut-off for these calls is given here.
# Key:
# [1] = molecular target: T1, Progesterone receptor (Homo sapiens, UniProt P06401); test: Antagonist activity at human progesterone receptor expressed in CHO cells assessed as […] luciferase activity by reporter gene assay; format: functional, cell-based
# T1 sequence (P06401 whole entry): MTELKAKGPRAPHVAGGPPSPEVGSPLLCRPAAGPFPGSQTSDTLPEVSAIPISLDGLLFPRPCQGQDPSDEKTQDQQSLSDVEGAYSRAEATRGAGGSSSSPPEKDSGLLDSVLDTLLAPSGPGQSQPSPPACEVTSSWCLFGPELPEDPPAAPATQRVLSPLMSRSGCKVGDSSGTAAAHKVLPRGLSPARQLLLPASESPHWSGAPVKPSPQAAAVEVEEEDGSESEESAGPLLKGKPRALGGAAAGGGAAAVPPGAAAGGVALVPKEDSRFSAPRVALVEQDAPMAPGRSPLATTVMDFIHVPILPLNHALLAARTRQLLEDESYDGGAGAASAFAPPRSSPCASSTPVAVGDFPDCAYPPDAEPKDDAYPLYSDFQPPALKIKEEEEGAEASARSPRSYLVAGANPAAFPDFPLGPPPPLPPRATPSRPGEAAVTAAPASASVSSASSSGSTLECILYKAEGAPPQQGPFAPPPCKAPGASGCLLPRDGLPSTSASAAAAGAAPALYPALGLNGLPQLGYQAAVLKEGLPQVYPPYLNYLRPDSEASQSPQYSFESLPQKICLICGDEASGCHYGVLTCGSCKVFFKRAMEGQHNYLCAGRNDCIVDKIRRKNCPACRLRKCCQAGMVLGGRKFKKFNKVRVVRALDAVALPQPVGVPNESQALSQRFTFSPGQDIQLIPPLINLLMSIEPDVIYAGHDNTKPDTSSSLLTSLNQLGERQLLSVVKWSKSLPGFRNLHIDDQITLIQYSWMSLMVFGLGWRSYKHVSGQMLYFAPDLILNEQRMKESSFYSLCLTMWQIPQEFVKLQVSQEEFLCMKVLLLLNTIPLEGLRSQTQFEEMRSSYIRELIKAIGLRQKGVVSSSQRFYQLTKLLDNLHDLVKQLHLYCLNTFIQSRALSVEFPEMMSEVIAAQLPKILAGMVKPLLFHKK
# [2] = molecular target: T1, Progesterone receptor; test: Antagonist activity at progesterone receptor in human T47D cells assessed as inhibition of progesterone-induced alkaline phosphatase activity; format: functional, cell-based
# [3] = molecular target: T2, Progesterone receptor (Homo sapiens) (UniProt P06401); test: Antagonist activity at progesterone receptor in human T47D cells assessed as inhibition of progesterone-induced alkaline phosphatase activity at 100 uM; format: functional, cell-based
# T2 sequence (whole entry): T1 sequence (P06401 whole entry)
# [4] = molecular target: T2, Progesterone receptor (Homo sapiens); test: Agonist activity at human progesterone receptor expressed in CHO cells assessed as […] luciferase activity by reporter gene assay; format: functional, cell-based
# [5] = molecular target: T2, Progesterone receptor (Homo sapiens); test: Agonist activity at progesterone receptor in human T47D cells assessed as induction of alkaline phosphatase activity
# [6] = molecular target: T3, Androgen receptor (Homo sapiens) (UniProt P10275); test: Displacement of [3H]testosterone from androgen receptor expressed in human T47D cells; format: cell-based
# T3 sequence (whole entry): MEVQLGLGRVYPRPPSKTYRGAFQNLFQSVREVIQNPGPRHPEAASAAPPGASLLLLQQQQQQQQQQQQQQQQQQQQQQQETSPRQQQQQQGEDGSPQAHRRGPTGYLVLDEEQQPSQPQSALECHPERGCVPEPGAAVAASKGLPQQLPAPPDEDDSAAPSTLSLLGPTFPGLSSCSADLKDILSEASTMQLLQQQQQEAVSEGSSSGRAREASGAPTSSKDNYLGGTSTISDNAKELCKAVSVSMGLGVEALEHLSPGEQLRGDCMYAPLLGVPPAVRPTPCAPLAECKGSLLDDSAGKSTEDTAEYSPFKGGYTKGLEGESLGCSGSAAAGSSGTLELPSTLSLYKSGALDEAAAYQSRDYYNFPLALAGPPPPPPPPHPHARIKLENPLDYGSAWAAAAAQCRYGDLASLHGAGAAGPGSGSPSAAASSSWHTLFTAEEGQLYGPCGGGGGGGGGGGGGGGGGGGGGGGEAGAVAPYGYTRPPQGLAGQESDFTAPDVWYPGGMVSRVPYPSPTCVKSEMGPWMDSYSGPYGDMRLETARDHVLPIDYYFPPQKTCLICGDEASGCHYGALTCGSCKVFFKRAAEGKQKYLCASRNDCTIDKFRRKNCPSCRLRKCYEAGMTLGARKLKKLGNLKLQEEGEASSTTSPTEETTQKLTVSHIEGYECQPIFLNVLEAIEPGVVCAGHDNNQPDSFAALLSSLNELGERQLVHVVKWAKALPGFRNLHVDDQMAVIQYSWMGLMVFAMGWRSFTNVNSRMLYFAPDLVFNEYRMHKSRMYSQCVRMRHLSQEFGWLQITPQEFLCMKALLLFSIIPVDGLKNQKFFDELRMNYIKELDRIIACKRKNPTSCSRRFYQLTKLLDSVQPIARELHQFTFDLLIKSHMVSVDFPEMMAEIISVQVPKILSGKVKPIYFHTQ
# [7] = molecular target: T4, Estrogen receptor (Homo sapiens) (UniProt P03372); test: Displacement of [3H]estradiol from estrogen receptor expressed in human T47D cells; format: cell-based
# T4 sequence (whole entry): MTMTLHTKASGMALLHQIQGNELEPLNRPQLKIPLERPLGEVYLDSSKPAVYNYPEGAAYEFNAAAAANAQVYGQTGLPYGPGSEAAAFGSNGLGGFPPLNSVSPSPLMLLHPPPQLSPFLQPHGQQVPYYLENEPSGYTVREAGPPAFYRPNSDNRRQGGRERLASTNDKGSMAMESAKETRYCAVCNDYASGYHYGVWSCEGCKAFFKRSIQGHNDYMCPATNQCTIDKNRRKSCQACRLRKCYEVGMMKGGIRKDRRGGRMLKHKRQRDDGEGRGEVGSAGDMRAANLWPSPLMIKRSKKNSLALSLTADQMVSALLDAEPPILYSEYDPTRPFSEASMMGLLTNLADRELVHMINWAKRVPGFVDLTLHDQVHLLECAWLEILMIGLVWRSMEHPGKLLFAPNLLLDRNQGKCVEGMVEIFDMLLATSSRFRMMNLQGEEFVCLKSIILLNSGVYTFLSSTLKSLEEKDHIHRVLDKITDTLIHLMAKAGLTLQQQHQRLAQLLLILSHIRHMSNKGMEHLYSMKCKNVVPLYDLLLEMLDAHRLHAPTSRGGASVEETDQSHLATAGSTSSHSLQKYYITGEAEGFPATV
# [8] = molecular target: T2, Progesterone receptor (Homo sapiens); test: Antagonist activity at human progesterone receptor expressed in CHO cells assessed as inhibition of progesterone-induced luciferase activity by reporter gene assay at 100 uM; format: functional, cell-based
Structure (SMILES),IC50 [1],IC50 [2],also measured
CC1(C)C(=O)N(c2cccc(Cl)c2)C(=O)c2ccccc21,5.8 µM,3.4 µM,–
O=c1[nH]c2ccccc2c(=O)n1-c1ccccc1,–,–,inhibition [3]: 34%; Activity [4]: inactive; Activity [5]: inactive
COc1ccc(N2C(=O)c3ccccc3C(C)(C)C2=O)cc1,17 µM,11 µM,–
CC1(C)C(=O)N(c2ccccc2Cl)C(=O)c2ccccc21,4.9 µM,4.1 µM,–
O=C1CC(O)C(N2C(=O)c3ccccc3C2=O)C(=O)N1 (stereo not drawn),–,–,inhibition [3]: 30.6%
O=C1Cc2ccccc2C(=O)N1c1ccccc1,–,–,inhibition [8]: 38%; inhibition [3]: 25%
CC1(C)C(=O)N(c2cccc(F)c2)C(=O)c2ccccc21,11 µM,10 µM,–
CCn1c(=O)n(-c2ccccc2)c(=O)c2ccccc21,34 µM,30 µM,Activity [4]: inactive; Activity [5]: inactive
CC1(C)C(=O)N(c2ccc(C#N)cc2)C(=O)c2ccccc21,1.8 µM,1.6 µM,–
O=C1CCC(N2C(=O)c3ccccc3C2=O)C(=O)N1 (stereo not drawn),–,–,Activity [3]: inactive
O=C1CCC(N2C(=O)c3ccc(O)cc3C2=O)C(=O)N1O (stereo not drawn),–,–,inhibition [3]: 53.7%
O=C1CC(O)C(N2C(=O)c3ccc(O)cc3C2=O)C(=O)N1 (stereo not drawn),–,–,inhibition [3]: 29.4%
CC1(C)C(=O)N(c2ccc(F)cc2)C(=O)c2ccccc21,8.9 µM,6.8 µM,–
CC1(C)C(=O)N(c2ccccc2F)C(=O)c2ccccc21,10 µM,13 µM,–
CC1(C)C(=O)N(c2ccccc2)C(=O)c2ccccc21,26 µM,20 µM,–
Cc1ccc(N2C(=O)c3ccccc3C(C)(C)C2=O)cc1,8.9 µM,8.1 µM,–
O=c1c2ccccc2n(Cc2ccccc2)c(=O)n1-c1ccccc1,15 µM,11 µM,Activity [4]: inactive; Activity [5]: inactive
CC1(C)C(=O)N(c2ccc(Cl)cc2)C(=O)c2ccccc21,3.3 µM,1.3 µM,–
CCCn1c(=O)n(-c2ccccc2)c(=O)c2ccccc21,18 µM,23 µM,Activity [4]: inactive; Activity [5]: inactive
O=C1CCC(N2C(=O)c3cccc(O)c3C2=O)C(=O)N1O (stereo not drawn),–,–,inhibition [3]: 30.7%
O=C1CCC(N2C(=O)c3ccccc3C2=O)C(=O)N1O (stereo not drawn),–,–,inhibition [3]: 42.5%
Cn1c(=O)n(-c2ccccc2)c(=O)c2ccccc21,–,84 µM,Activity [4]: inactive; Activity [5]: inactive

# Continued by falling IC50 [2], values first:
IC50 [1],IC50 [2],Structure (SMILES),also measured
2.1 µM,1.3 µM,O=C1c2ccccc2C2(CCCC2)C(=O)N1c1ccc(Cl)cc1,–
0.69 µM,1.2 µM,N#Cc1ccc(N2C(=O)c3ccccc3C3(CCCC3)C2=O)cc1,–
1.5 µM,1.1 µM,O=C1c2ccccc2C2(CCCCC2)C(=O)N1c1ccc(Cl)cc1,–
1 µM,1.1 µM,CCCC1(CCC)C(=O)N(c2ccc(Cl)cc2)C(=O)c2ccccc21,–
0.45 µM,0.88 µM,N#Cc1ccc(N2C(=O)c3ccccc3C3(CCCCC3)C2=O)cc1,–
0.85 µM,0.4 µM,C=CCC1(CC=C)C(=O)N(c2ccc(Cl)cc2)C(=O)c2ccccc21,–
0.28 µM,0.25 µM,CCC1(CC)C(=O)N(c2ccc(Cl)cc2)C(=O)c2ccccc21,–
0.14 µM,0.12 µM,CCCC1(CCC)C(=O)N(c2ccc(C#N)cc2)C(=O)c2ccccc21,–
0.15 µM,0.11 µM,C=CCC1(CC=C)C(=O)N(c2ccc(C#N)cc2)C(=O)c2ccccc21,–
0.078 µM,0.074 µM,CCC1(CC)C(=O)N(c2ccc(C#N)cc2)C(=O)c2ccccc21,Activity [6]: inactive; Activity [7]: inactive
